The subject of this assay is binding sites for [^3 H] diazepam (benzodiazepine receptor), rat cerebral cortex synaptosomal membranes. The assay can be described thus: Radioreceptor assay: inhibition of [3H]diazepam binding to rat synaptosomal membranes by drugs dissolved in plasma. The conditions noted are these: for plasma concentration that could be reliably measured by inhibition of [3H]diazepam binding: benzodiazepine dissolved in plasma, assayed in triplicate, from standard curve in figure; for potency rank among the benzodiazepines tested in inhibiting [3H]diazepam binding: four benzodiazepines: clonazepam, N-demethyldiazepam, flurazepam. The protocol: Blood samples to be assayed are drawn into heparinized tubes and the plasma then separated therefrom by centrifugation at […]. Two-hundred μl of plasma is then pipetted into microtubes, e.g., Eppendorf Microtubes (Brinkman Instruments, Westbury, N.Y.) and diluted 1:10 with water. Samples are mixed by inversion and the plasma precipitated with 50 μl of perchloric acid. The samples are then vortexed briefly and centrifuged in a microcentrifuge, e.g., an Eppendorf Microfuge (Brinkman Instruments, Westbury, N.Y.), for three minutes. Twenty-five μl of the clear supernatant is withdrawn and added to 375 μl of distilled water in 16×125 mm glass tubes. Assays are thereafter performed at 0°-4° C. as follows:
The incubation is terminated after 15 min with a 5 ml wash of ice-cold […] Tris buffer (2-amino-2-hydroxymethyl-1,3-propanediol) at pH 7.4, and immediately filtered through Whatman GF/B filters in a filtering device, e.g., a Millepore filtering bank (Model 1225, Millipore Corp., Bedford, Mass.) The filters are immediately washed with an additional 5 ml of ice-cold buffer. The filters are airdried and suspended in a scintillation fluor, e.g., in 10 ml "Aquasol" (New England Nuclear, Boston, Mass.) and the radiation measured in a liquid scintillation counter, e.g., a Beckman LS-355 liquid scintillation counter.
Standard curves were constructed by adding known amounts of benzodiazepine to plasma, diluting the plasma (1:5 or 1:10) with water, and proceeding in an identical manner to unknown samples. […] The percent inhibition of specific binding by plasma samples is defined as: [formula] […] The slope and intercept of these lines were determined by least mean squares regression analysis and the benzodiazepine concentrations in unknown plasma samples computed from these values.
The synaptosomal membranes suspension described above is prepared as follows:
(a) homogenize rat brains in 20 volumes of ice-cold 0.32 M sucrose (using a Potter-Elvehjern homogenizer);
(b) centrifuge the resulting suspension obtained in step (a) at 1000×g for 10 minutes;
(c) centrifuge the supernatent obtained in step (b) at 20,000×g for 20 minutes; and
(d) resuspend the pellet obtained in step (c) in 40 volumes of Tris buffer to a final protein concentration of approximately 1 mg/ml.

The structures appear in SMILES notation.

Consider `CCN(CC)CCN1C(=O)CN=C(c2ccccc2F)c2cc(Cl)ccc21` [flurazepam], for which the “plasma concentration that could be reliably measured by inhibition of [3H]diazepam binding” value was “approximately 100 ng/ml” and the “potency rank among the benzodiazepines tested in inhibiting [3H]diazepam binding” value is on record as “least potent”. The corresponding values for `O=C1CN=C(c2ccccc2Cl)c2cc([N+](=O)[O-])ccc2N1` [Clonazepam, clonazepam] are 10 ng/mL and “most potent”.

As to `O=C1CN=C(c2ccccc2)c2cc(Cl)ccc2N1` [N-demethyldiazepam], the “potency in inhibiting [3H]diazepam binding relative to the parent compound diazepam” value (from standard curves in figure) is recorded as “about 85%”.
